# Measurements as given in patent US6683103B2, “Sulfonamides for treatment of endothelin-mediated disorders” (Texas Biotechnology Corporation, priority 1997, dated 2004).
# Like-named read-outs stand apart in the source and are kept apart here.
# Key:
# [1] = biological target: T1, human ETB receptor (Homo sapiens, UniProt P24530); test: Binding Test #2: inhibition of 125I-ET-1 binding to ETB receptors (transfected COS7 cell membranes); conditions: read-out: ETB
# T1 construct: expressed in transfected cells; host or cells: COS7 cells
# T1 sequence (P24530 27-442): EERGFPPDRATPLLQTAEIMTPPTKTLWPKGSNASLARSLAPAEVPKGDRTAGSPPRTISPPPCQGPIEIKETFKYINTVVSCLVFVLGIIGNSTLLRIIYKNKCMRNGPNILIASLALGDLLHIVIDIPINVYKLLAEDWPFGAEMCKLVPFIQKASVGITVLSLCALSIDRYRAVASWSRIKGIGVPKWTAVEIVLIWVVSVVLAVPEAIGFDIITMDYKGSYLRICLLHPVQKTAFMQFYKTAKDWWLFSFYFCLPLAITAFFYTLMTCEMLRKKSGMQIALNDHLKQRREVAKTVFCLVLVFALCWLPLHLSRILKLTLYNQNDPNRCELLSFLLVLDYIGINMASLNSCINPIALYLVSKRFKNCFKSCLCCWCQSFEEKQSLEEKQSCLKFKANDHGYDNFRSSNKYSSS
# From the text: Compounds that are potential endothelin antagonists are identified by testing their ability to compete with ^125I-labeled ET-1 for binding to human ETA receptors or ETB receptors present on isolated cell membranes. The effectiveness of the test compound as an antagonist or agonist of the biological tissue response of endothelin can also be assessed by measuring the effect on endothelin induced contraction of isolated rat thoracic aortic rings. The ability of the compounds to act as antagonists or agonists for ETB receptors can be assess by testing the ability of the compounds are to inhibit endothelin-1 induced prostacyclin release from cultured bovine aortic endothelial cells.
# B. Endothelin Binding Inhibition—Binding Test #2: Inhibition of Binding to ETB Receptors
# COS7 cells were transfected with DNA encoding the ETB receptor, The resulting cells, which express the human ETB receptor, were grown to confluence in T-150 flasks. Membrane was prepared as described above. The binding assay was performed as described above using the membrane preparation diluted with binding buffer to a concentration of 1 μg/50 μl.
# Briefly, the COS7 cells, described above, that had been transfected with DNA encoding the ETB receptor and express the human ETB receptor on their surfaces were grown to confluence in T-1 75 flasks. Cells from multiple flasks were collected by scraping, pooled and centrifuged for 10 min at 190×g. The cells were resuspended in phosphate buffered saline (PBS) containing 10 mM EDTA using a Tenbroeck homogenizer. The suspension was centrifuged at 4° C. 57,800 X g for 15 min, the pellet was resuspended in 5 ml of buffer A (5mM HEPES buffer, pH 7.4 containing aprotinin (100 KIU/ml)) and then frozen and thawed once. Five ml of Buffer B (5 mM HEPES Buffer, pH 7.4 containing 10 mM MnCl2 and 0.001% deoxyribonuclease Type 1) was added, the suspension mixed by inversion and then incubated at 37° C. for 30 minutes. The mixture was centrifuged at 57,800×g as described above, the pellet washed twice with buffer A and then resuspended in buffer C (30 mM HEPES buffer, pH 7.4 containing aprotinin (100 KIU/ml) to give a final protein concentration of 2 mg/ml.
# The binding assay was performed as described above using the membrane preparation diluted to give 1 μg/50 μl of binding buffer.
# [2] = biological target: T2, human ETA receptors (Homo sapiens, UniProt P25101); test: Binding Test #1: inhibition of 125I-ET-1 binding to ETA receptors (TE 671 cell membranes)
# T2 construct: endogenous in cells; host or cells: TE 671 cells (ATCC HTB 139)
# T2 sequence (P25101 21-427): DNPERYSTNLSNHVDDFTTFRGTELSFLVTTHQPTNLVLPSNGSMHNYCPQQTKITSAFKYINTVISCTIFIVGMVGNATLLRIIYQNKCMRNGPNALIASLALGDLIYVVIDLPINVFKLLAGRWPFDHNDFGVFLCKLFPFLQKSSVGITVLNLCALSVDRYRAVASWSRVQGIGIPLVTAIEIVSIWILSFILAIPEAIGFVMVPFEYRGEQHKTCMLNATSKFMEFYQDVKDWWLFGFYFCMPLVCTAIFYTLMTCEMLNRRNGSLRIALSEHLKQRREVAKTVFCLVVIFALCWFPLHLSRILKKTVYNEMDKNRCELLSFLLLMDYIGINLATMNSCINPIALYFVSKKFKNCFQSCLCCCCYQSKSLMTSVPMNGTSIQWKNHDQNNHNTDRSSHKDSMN
# Method in brief: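 Membranes from TE 671 cells (up to 8 μg protein) incubated with ¹²⁵I-ET-1 and compound (1 nM–100 μM final) in 30 mM HEPES pH 7.4, 150 mM NaCl, 5 mM MgCl2, 0.5% bacitracin, 16–18 h at 4 °C or alternatively at 24 °C. Nonspecific binding with 80 nM ET-1; bound pellet gamma-counted, % inhibition calculated, usually triplicate.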
# [3] = Table 1, incubation at 4° C., read-out: ETA
# [4] = Table 1, † incubation at 24° C.
# [5] = Table 1, † incubation at 24° C., read-out: ETA
"IC50 ([1]; Table 1, incubation at 4° C.)","IC50 [2, 3]","IC50 [1, 4]","IC50 [2, 5]",SMILES,further results
98.1 µM,20.8 nM,,,COC(=O)c1sccc1S(=O)(=O)Nc1onc(C)c1Br [N-(4-bromo-3-methyl-5-isoxazolyl)-2-(carbomethoxy)thiophene-3-sulfonamide],
,,15 µM,2000 nM,"Cc1noc(NS(=O)(=O)c2ccsc2C(=O)c2ccc3c(c2)OCO3)c1Br [N-(4-bromo-3-methyl-5-isoxazolyl)-2-[(3,4-methylenedioxy)benzoyl]thiophene-3-sulfonamide]",
1.67 µM,< 10 nM,,,Cc1ccc(NC(=O)c2sccc2S(=O)(=O)Nc2onc(C)c2Br)cc1 [N-(4-bromo-3-methyl-5-isoxazolyl)-2-[-(4-tolulylaminocarbonyl]thiophene-3-sulfonamide],
1.13 µM,< 10 nM,,,Cc1noc(NS(=O)(=O)c2ccsc2C(=O)Nc2ccc(C(C)C)cc2)c1Br [N-(4-bromo-3-methyl-5-isoxazolyl)-2-[N-(4-isopropylphenyl)aminocarbonyl]thiophene-3-sulfonamide],
1.76 µM,~8 nM,,,CCC(C)c1ccc(NC(=O)c2sccc2S(=O)(=O)Nc2onc(C)c2Br)cc1 (centres unmarked) [N-(4-bromo-3-methyl-5-isoxazolyl)-2-[N-(4-sec-butylphenyl)aminocarbonyl]thiophene-3-sulfonamide],
~3 µM,22.6 nM,,,CCCCc1sc2ccccc2c1S(=O)(=O)Nc1onc(C)c1Br [N-(4-bromo-3-methyl-5-isoxazolyl)-2-butylbenzo[b]thiophene-3-sulfonamide],
,,104 µM,590 nM,Cc1noc(NS(=O)(=O)c2c(C(=O)O)n(C)c3ccccc23)c1Br [N-(4-bromo-3-methyl-5-isoxazolyl)-2-carboxyl-1-methylidole-3-sulfonamide],
5.13 µM,6.7 nM,,,CCc1sc2ccccc2c1S(=O)(=O)Nc1onc(C)c1Br [N-(4-bromo-3-methyl-5-isoxazolyl)-2-ethylbenzo[b]thiophene-3-sulfonamide],
5.7 µM,5 nM,10.7 µM,30 nM,Cc1noc(NS(=O)(=O)c2c(C(C)C)sc3ccccc23)c1Br [N-(4-bromo-3-methyl-5-isoxazolyl)-2-i-propylbenzo[b]thiophene-3-sulfonamide],
3.5 µM,48.6 nM,,,Cc1noc(NS(=O)(=O)c2c(C)sc3ccccc23)c1Br [N-(4-bromo-3-methyl-5-isoxazolyl)-2-methylbenzo[b]thiophene-3-sulfonamide],
~1 µM,18.2 nM,,,Cc1noc(NS(=O)(=O)c2c(Cc3ccccc3)sc3ccccc23)c1Br [N-(4-bromo-3-methyl-5-isoxazolyl)-2-n-benzylbenzo[b]thiophene-3-sulfonamide],
7.95 µM,24 nM,16.6 µM,74 nM,CCCc1sc2ccccc2c1S(=O)(=O)Nc1onc(C)c1Br [N-(4-bromo-3-methyl-5-isoxazolyl)-2-n-propylbenzo[b]thiophene-3-sulfonamide],
,,6.61 µM,302 nM,"Cc1noc(NS(=O)(=O)c2ccsc2COc2ccc3c(c2)OCO3)c1Br [N-(4-bromo-3-methyl-5-isoxazolyl)-2-{[3,4-(methylenedioxy)phenoxy]methyl}thiophene-3-sulfonamide]",
10.8 µM,160 nM,37.2 µM,676 nM,Cc1noc(NS(=O)(=O)c2sccc2CCc2ccccc2)c1Br [N-(4-bromo-3-methyl-5-isoxazolyl)-3-(phenethyl)thiophene-2-sulfonamide],
,,3.68 µM,80.1 nM,Cc1noc(NS(=O)(=O)c2sccc2Sc2ccccc2)c1Br [N-(4-bromo-3-methyl-5-isoxazolyl)-3-(phenylthio)thiophene-2-sulfonamide],

# The next lines start with the compound.
SMILES,"IC50 ([1]; Table 1, incubation at 4° C.)","IC50 [2, 3]","IC50 [1, 4]","IC50 [2, 5]",further results
"Cc1cc2c(cc1C=CCc1sccc1S(=O)(=O)Nc1onc(C)c1Br)OCO2 [N-(4-bromo-3-methyl-5-isoxazolyl)-2-[2-methyl-4,5-(methylenedioxy)cinnamyl]thiophene-3-sulfonamide]",,,3.28 µM,80.4 nM,
"Cc1cc2c(cc1CCc1sccc1S(=O)(=O)Nc1onc(C)c1Br)OCO2 [N-(4-bromo-3-methyl-5-isoxazolyl)-2-[2-methyl-4,5-(methylenedioxy)phenethyl]thiophene-3-sulfonamide]",,,8.9 µM,61.9 nM,
"Cc1noc(NS(=O)(=O)c2ccsc2C(=O)NC(=O)c2ccc3c(c2)OCO3)c1Br [N-(4-bromo-3-methyl-5-isoxazolyl)-2-[(3,4-methylenedioxy)benzoyl]aminocarbonyl]thiophene-3-sulfonamide]",,,37 µM,89 nM,
"Cc1noc(NS(=O)(=O)c2ccsc2CCc2ccc3c(c2)OCO3)c1Br [N-(4-bromo-3-methyl-5-isoxazolyl)-2-[(3,4-methylenedioxy)phenethyl]thiophene-3-sulfonamide]",,,9.2 µM,210 nM,
"Cc1noc(NS(=O)(=O)c2ccsc2C/C=C/c2ccc3c(c2)OCO3)c1Br [N-(4-bromo-3-methyl-5-isoxazolyl)-2-[trans-(3,4-methylenedioxy)cinnamyl]thiophene-3-sulfonamide]",,,1.4 µM,140 nM,
Cc1noc(NS(=O)(=O)c2ccccc2-c2ccccc2)c1Br [N-(4-bromo-3-methyl-5-isoxazolyl)-2-biphenylsulfonamide],,,,,"IC50 ([1]; Table 2, incubation at 4° C.): 8.54 µM; IC50 ([2]; Table 2, incubation at 4° C., read-out: ETA): 1.27 nM; IC50 ([2]; read-out: IC50 for ETA receptors): ~1.6 nM"
CCc1sc2ccc(C)cc2c1S(=O)(=O)Nc1onc(C)c1Br [N-(4-bromo-3-methyl-5-isoxazolyl)-2-ethyl-5-methylbenzo[b]thiophene-3-sulfonamide],,,54.3 ± 2.6 µM,1890 ± 431 nM,
Cc1ccc(/C=C/c2cc(-c3ccc(C)cc3)sc2S(=O)(=O)Nc2onc(C)c2Br)cc1 [N-(4-bromo-3-methyl-5-isoxazolyl)-3-(4-methyl-trans-styryl)-5-(4-tolyl)thiophene-2-sulfonamide],,,1.58 µM,6900 nM,
Cc1ccc(Cc2cc(-c3ccc(C)cc3)sc2S(=O)(=O)Nc2onc(C)c2Br)cc1 [N-(4-bromo-3-methyl-5-isoxazolyl)-3-(4-methylbenzyl)-5-(4-tolyl)thiophene-2-sulfonamide],,,1.56 µM,4690 nM,
Cc1ccc(CCc2cc(-c3ccc(C)cc3)sc2S(=O)(=O)Nc2onc(C)c2Br)cc1 [N-(4-bromo-3-methyl-5-isoxazolyl)-3-(4-methylphenethyl)-5-(4-tolyl)thiophene-2-sulfonamide],,,2.09 µM,6100 nM,
"Cc1noc(NS(=O)(=O)c2sccc2CC=Cc2cc3c(cc2CO)OCO3)c1Br [N-(4-bromo-3-methyl-5-isoxazolyl)-3-[2-(hydroxymethyl)-4,5-(methylenedioxy)cinnamyl]thiophene-2-sulfonamide]",,,3.24 µM,79.5 nM,
